In ChEMBL document CHEMBL1201862, “PubChem BioAssay data set” (2004):
Blank lines part the entries; values can stand above or below the compound they belong to. Active and inactive are the calls of the source.

Legend:
[1] = biological target: Mitogen-activated protein kinase kinase kinase kinase 5 (Homo sapiens, UniProt Q9Y4K4); format: functional;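 note: measured as one member of a kinome-spanning kinase panel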
[2] = biological target: MAP kinase-activated protein kinase 2 (Homo sapiens, UniProt P49137); format: functional;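 note: measured as one member of a kinome-wide kinase panel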
[3] = biological target: Protein kinase C zeta type (Homo sapiens, UniProt Q05513); format: functional;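 note: measured as one member of a broad kinase profiling panel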
[4] = biological target: Death-associated protein kinase 3 (Homo sapiens, UniProt O43293); format: functional;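 note: measured as one member of a kinome-wide profiling panel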
[5] = biological target: Homeodomain-interacting protein kinase 2 (Homo sapiens, UniProt Q9H2X6); format: functional;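 note: measured within a kinome-wide kinase profiling panel, HIPK2 being one panel member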
[6] = biological target: Calcium/calmodulin-dependent protein kinase type II subunit gamma (Homo sapiens, UniProt Q13555); format: functional
[7] = biological target: Mitogen-activated protein kinase 9 (Homo sapiens, UniProt P45984); format: functional;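 note: value from a kinome panel profiling assay, MAPK9 panel entry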
[8] = biological target: Testis-specific serine/threonine-protein kinase 2 (Homo sapiens, UniProt Q96PF2); format: functional;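 note: part of the Navigating the Kinome panel, target entry STK22B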
[9] = biological target: T1, Mannose-6-phosphate isomerase (Homo sapiens, UniProt P34949); assay: MPI inhibition at elevated mannose 6-phosphate – biochemical, fluorescence intensity, high mannose 6-phosphate, primary screen (AID 1220)
T1 sequence (P34949 whole entry): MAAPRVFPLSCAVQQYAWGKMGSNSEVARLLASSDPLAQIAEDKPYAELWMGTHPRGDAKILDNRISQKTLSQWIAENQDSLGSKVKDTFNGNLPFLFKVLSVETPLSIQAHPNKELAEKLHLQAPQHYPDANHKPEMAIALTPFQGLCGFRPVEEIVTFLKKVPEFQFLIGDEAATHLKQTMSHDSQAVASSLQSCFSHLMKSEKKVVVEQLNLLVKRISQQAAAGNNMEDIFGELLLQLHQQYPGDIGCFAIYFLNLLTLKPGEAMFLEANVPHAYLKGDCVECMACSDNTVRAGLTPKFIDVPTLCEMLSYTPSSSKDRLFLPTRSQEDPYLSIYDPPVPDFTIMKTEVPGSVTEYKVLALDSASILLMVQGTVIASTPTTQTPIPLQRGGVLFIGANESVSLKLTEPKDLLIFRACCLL

Hexokinase = biological target: T2, Hexokinase (Trypanosoma brucei, UniProt Q38C41); assay: Confirmation assay for inhibitors of Trypanosoma brucei hexokinase 1-Analogue-first series. [Related pubchem assays (depositor defined):AID1430, AID1632, AID2516, AID2560, AID2579, AID2600, AID449725, AID492951]; format: functional
T2 sequence (Q38C41 whole entry): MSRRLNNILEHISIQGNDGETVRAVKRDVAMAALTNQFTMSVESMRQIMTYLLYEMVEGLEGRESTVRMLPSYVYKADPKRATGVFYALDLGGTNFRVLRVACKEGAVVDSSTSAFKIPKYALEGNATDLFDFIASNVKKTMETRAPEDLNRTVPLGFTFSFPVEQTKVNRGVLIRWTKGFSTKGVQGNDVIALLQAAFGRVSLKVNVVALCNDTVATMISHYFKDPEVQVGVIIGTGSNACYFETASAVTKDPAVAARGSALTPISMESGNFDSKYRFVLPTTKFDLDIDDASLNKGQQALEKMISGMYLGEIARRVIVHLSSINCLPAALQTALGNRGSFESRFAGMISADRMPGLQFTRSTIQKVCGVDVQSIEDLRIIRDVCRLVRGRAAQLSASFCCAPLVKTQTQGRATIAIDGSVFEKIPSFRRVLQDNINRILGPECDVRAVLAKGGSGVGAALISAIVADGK

[10] = biological target: SWI/SNF-related matrix-associated actin-dependent regulator of chromatin subfamily A member 2 (Homo sapiens, UniProt P51531); assay: Luminescence-based cell-based high throughput dose response assay to identify activators of the function of SWI/SNF related, matrix associated, actin dependent regulator of chromatin, subfamily a, member 2 (SMARCA2, BRM).; format: functional
[11] = biological target: DNA dC->dU-editing enzyme APOBEC-3A (Homo sapiens, UniProt P31941); assay: A3A deaminase inhibition for selectivity – biochemical, dose response (AID 504722); format: functional
[12] = biological target: Dual specificity tyrosine-phosphorylation-regulated kinase 1A (Rattus norvegicus, UniProt Q63470); format: biochemical, Homo sapiens
Aminopeptidase N = biological target: T3, Aminopeptidase N (Plasmodium falciparum FcB1/Columbia, UniProt O96935); assay: malaria alanyl aminopeptidase activity blockers – biochemical, fluorogenic H-Leu-NHMec substrate, 1536-well (AID 1445); parameters: species or system Plasmodium falciparum 3D7, 3D7
T3 sequence (O96935 whole entry): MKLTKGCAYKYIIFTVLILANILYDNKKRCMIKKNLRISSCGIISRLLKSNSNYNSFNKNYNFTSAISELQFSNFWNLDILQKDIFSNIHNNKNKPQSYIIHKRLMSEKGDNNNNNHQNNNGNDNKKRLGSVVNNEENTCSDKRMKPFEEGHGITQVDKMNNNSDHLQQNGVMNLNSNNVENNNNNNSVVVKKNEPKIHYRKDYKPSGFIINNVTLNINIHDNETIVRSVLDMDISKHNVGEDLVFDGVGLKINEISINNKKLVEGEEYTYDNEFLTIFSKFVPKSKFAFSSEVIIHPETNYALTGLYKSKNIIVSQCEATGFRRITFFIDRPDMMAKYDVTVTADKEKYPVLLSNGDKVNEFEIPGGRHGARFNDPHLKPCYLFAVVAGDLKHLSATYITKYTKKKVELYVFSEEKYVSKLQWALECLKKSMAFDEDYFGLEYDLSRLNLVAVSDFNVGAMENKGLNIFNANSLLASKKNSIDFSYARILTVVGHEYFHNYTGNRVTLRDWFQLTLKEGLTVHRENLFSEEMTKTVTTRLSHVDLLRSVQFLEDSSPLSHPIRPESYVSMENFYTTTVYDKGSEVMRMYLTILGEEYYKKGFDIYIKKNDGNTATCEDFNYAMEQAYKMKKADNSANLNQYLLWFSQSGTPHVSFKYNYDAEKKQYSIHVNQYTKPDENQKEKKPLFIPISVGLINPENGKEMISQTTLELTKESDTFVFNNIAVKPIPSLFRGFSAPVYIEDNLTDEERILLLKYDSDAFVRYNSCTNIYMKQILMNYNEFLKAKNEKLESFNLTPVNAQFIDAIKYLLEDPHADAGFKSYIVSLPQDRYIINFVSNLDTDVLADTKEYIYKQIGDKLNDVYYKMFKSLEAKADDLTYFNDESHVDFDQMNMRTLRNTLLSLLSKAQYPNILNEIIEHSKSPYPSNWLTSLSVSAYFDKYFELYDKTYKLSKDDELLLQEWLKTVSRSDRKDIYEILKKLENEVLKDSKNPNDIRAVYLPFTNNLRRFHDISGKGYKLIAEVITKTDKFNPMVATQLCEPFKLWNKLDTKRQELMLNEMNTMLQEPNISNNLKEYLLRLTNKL

HeLa = assay: viability loss in HeLa cells – cell-based, 24 h, cherry-picked samples, cytotoxicity control, dose response (AID 504726); format: functional; settings: Homo sapiens;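 note: potency for cytotoxicity as loss of luminescence signal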

Chain of Testis-specific serine/threonine-protein kinase 2 (Q96PF2 whole entry): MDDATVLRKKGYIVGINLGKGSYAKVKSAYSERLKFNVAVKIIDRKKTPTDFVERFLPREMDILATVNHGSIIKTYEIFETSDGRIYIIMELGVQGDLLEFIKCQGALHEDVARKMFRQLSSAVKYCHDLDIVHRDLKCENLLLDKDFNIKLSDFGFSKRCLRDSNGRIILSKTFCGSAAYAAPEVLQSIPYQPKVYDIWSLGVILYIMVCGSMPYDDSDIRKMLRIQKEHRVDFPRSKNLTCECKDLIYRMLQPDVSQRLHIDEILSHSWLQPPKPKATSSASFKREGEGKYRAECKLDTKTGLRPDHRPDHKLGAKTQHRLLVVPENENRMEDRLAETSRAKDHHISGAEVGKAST
Chain of DNA dC->dU-editing enzyme APOBEC-3A (P31941 whole entry): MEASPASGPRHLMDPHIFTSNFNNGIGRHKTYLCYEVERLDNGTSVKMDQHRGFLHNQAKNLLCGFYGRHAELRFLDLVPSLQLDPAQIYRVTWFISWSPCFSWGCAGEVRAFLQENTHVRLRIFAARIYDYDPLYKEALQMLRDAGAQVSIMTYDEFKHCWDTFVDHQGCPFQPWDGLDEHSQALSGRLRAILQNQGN
Chain of SWI/SNF-related matrix-associated actin-dependent regulator of chromatin subfamily A member 2 (P51531 whole entry): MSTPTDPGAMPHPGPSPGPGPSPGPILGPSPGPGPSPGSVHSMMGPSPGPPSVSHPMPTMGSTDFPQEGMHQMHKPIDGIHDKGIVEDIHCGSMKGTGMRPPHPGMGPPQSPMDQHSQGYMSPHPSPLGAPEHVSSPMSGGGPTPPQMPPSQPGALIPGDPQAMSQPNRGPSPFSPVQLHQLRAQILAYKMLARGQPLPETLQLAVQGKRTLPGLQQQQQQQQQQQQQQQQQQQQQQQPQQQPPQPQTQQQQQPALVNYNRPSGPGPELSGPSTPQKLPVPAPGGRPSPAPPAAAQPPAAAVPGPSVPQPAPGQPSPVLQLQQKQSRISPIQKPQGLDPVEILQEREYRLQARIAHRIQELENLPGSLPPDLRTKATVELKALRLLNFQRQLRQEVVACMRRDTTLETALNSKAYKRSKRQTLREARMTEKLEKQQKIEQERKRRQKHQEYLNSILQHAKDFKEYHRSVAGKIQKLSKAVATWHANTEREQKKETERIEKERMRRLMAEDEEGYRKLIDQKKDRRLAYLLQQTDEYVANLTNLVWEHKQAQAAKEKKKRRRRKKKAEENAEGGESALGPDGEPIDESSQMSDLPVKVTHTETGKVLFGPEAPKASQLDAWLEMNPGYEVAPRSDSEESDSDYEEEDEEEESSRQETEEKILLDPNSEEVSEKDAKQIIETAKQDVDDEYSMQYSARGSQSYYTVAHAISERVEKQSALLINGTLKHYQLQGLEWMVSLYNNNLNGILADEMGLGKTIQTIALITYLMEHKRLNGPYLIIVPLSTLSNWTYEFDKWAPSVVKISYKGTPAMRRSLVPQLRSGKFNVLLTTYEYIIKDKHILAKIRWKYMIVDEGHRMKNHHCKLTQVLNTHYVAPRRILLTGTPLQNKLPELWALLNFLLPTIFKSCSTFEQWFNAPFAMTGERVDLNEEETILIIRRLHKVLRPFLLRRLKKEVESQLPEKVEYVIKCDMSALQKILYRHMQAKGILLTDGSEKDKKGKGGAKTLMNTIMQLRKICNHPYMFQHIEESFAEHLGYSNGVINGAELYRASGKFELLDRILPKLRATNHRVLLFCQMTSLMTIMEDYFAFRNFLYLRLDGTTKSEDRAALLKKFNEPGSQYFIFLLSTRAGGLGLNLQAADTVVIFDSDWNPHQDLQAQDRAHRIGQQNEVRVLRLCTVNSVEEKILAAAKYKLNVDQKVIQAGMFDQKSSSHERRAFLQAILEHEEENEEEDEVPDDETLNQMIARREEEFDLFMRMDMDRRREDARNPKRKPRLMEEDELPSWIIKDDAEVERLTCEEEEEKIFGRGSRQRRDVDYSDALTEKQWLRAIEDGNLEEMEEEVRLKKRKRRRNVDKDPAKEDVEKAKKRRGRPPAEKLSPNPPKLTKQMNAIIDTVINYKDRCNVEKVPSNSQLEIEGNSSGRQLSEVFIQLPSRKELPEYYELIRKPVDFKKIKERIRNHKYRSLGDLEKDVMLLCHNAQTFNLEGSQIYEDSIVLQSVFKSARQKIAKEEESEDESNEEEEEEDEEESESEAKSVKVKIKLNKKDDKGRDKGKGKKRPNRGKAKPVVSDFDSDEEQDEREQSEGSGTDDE
Chain of Death-associated protein kinase 3 (O43293 whole entry): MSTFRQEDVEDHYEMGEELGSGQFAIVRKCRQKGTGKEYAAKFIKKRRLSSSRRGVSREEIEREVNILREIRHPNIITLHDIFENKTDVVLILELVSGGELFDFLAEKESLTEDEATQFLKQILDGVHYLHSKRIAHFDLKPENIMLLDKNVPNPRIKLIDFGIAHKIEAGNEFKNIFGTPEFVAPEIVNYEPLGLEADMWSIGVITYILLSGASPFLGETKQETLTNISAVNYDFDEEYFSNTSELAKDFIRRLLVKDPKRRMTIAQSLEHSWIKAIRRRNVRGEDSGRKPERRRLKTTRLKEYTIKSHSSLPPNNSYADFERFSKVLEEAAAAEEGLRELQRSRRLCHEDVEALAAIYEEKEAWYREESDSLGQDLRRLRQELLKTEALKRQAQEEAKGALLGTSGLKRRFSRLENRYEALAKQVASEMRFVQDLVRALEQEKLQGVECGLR
Chain of MAP kinase-activated protein kinase 2 (P49137 whole entry): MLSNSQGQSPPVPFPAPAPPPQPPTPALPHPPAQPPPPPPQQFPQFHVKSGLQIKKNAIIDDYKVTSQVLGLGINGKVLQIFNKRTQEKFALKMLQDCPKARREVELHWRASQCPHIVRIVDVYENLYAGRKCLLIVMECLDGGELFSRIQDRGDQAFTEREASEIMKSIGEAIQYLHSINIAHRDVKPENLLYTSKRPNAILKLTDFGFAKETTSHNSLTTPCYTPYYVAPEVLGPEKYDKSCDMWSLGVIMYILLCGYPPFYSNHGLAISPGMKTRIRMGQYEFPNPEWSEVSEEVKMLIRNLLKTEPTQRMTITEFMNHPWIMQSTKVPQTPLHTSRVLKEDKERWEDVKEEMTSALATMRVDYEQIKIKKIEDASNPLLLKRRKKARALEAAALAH
Chain of Mitogen-activated protein kinase 9 (P45984 whole entry): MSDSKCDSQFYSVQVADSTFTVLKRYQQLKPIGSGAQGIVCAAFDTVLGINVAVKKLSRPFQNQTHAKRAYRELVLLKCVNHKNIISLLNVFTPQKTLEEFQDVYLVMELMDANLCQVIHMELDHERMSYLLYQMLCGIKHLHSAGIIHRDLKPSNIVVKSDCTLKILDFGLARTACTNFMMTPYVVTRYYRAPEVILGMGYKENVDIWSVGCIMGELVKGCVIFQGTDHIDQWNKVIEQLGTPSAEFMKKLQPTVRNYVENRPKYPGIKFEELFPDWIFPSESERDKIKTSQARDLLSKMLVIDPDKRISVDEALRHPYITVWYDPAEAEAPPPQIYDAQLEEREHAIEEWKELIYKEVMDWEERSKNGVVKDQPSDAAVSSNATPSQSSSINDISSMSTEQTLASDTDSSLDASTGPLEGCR
Chain of Mitogen-activated protein kinase kinase kinase kinase 5 (Q9Y4K4 whole entry): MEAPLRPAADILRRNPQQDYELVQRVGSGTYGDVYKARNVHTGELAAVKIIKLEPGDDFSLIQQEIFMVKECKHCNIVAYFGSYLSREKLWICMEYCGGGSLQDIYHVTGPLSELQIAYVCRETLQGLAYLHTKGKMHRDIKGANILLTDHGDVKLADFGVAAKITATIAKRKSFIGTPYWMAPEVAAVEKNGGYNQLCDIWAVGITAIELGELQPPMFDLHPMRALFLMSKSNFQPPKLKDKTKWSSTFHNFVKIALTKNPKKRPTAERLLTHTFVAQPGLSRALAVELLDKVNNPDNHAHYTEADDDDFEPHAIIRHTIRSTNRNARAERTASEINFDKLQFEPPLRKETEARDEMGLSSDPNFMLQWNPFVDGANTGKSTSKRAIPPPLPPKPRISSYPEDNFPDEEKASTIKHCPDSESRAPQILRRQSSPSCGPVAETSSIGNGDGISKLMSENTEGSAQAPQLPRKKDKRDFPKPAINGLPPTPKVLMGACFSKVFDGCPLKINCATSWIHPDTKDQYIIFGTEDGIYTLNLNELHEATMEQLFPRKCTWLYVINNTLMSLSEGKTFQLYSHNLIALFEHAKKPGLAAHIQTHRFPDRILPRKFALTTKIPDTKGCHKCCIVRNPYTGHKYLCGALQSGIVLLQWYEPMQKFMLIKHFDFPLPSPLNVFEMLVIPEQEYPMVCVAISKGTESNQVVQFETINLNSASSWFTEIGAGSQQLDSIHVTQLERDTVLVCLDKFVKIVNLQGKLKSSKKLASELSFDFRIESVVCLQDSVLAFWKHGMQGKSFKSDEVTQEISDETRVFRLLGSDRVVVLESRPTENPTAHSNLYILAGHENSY
Chain of Calcium/calmodulin-dependent protein kinase type II subunit gamma (Q13555 whole entry): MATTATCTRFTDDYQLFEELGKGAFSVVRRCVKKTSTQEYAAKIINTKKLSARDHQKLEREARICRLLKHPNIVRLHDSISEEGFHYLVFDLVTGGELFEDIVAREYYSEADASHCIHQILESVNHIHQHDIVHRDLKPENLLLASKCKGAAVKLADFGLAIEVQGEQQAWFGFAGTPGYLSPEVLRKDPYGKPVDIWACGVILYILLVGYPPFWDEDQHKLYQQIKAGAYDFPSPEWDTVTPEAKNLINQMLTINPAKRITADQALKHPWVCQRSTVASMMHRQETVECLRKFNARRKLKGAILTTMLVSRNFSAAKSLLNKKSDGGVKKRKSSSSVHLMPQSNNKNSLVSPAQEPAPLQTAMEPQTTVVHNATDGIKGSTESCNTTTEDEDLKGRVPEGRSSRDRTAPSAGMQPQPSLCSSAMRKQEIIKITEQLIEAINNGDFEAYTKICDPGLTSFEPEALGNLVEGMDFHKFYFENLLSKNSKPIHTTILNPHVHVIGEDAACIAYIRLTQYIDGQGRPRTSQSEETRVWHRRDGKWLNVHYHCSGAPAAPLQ

- Ki [1]: 0.501 µM (active)
- Ki [2]: > 7.94 µM (inactive)
- Ki [3]: > 7.94 µM (inactive)
- Ki [5]: > 3.16 µM (inactive)
- Ki [6]: > 6.31 µM (inactive)
- Ki [7]: > 3.98 µM (inactive)
- Ki [8]: > 1.58 µM (inactive)
SMILES: Cc1cccc(NC(=O)Nc2ccc3c(c2)CCc2sc4ncnc(N)c4c2-3)c1
- Ki [4]: > 1.26 µM (inactive)

SMILES: Cc1ccc(-n2sc3ccccc3c2=O)cc1
- IC50 [9]: 22 µM (active)
- IC50 (Hexokinase): 2.64 µM (active)
- EC50 [10]: > 91.2 µM (inactive)
- IC50 [11]: > 100 µM (inactive)

SMILES: N/C(=N\N=C/c1ccc(-c2ccc(O)c(C(=O)O)c2)o1)N[N+](=O)[O-]
- AC50 [12]: 1.13 µM (active)
- IC50 (Aminopeptidase N): 10.2 µM (active)
- AC50 (HeLa): 151 µM (active)
